Laboratory results: US9889146B2, “Benzoxaborole compounds and uses thereof” (priority 2012, dated 2018)
Values after ≈ are worked out from the molar mass of the structure shown. Read-outs that look alike come from different tables or passages of the source.

Key:
Assay type in all cases: cell-based
[1] = tested on: E. coli ATCC 25922, K. pneumoniae ATCC 13883 and P. aeruginosa ATCC 27853; assay: MIC, three strains and their mutants summarised; conditions: MIC in E. coli, P. aeruginosa and K. pneumoniae mutants versus wild-type
Method: (§1) Spontaneous Resistance Frequency was determined in vitro for GSK2251052 and the resistance mutants in E. coli ATCC 25922, K. pneumoniae ATCC 13883, and P. aeruginosa ATCC 27853 strains were characterized. GSK2251052 was prepared as described in U.S. Pat. No. 7,816,344 (the entire contents of which are hereby incorporated by reference herein). LB broth, Mueller Hinton II broth (adjusted), and Difco noble agar were obtained from Becton Dickinson (Cockeysville, Md., USA). M9 minimal broth containing 1×M9 salt, 0.5 μg/ML thiamine, 1 mM MgSO4, 0.1 mM CaCl2, 2% glucose, was obtained from Teknova (Hollister, Calif., USA). Antibacterial agents ciprofloxacin, ceftazidime, chloramphenicol, gentamycin, kanamycin, polymixin B, tobramycin and trimethoprim, and amino acids were obtained from Sigma Chemicals (St. Louis, Mo., USA). Strains were obtained from ATCC (Manassas, Va., USA).
(§2) Susceptibility tests were performed following the recommendations for aerobic bacteria (M7-A7) from the Clinical and Laboratories Standards Institute (CLSI).
(§3) Laboratory generated mutants resistant to GSK2251052 contain mutations in the editing domain of LeuRS. Six to ten GSK2251052 resistant colonies of E. coli ATCC 25922, K. pneumoniae ATCC 13883 and P. aeruginosa ATCC 27853 were selected for further analysis and their MICs to GSK2251052 were determined (Table 4-7).
GSK2251052 resistant mutants were not cross-resistant to commercial antibiotics.

[2] = tested on: P. aeruginosa ATCC 27853 wild type and mutants; assay: MIC, wild type and GSK2251052 resistant mutants; conditions: Pseudomonas aeruginosa
Method: as §1, §2, §3

[3] = tested on: E. coli ATCC 25922 wild type and mutants; assay: MIC, wild type and GSK2251052 resistant mutants; conditions: Escherichia coli
Method: as §1, §2, §3

[4] = tested on: K. pneumoniae ATCC 13883 wild type and mutants; assay: MIC, wild type and GSK2251052 resistant mutants; conditions: Klebsiella pneumoniae
Method: as §1, §2, §3

[5] = tested on: Enterobacter aerogenes (AmpC); assay: microbe, parasite or virus in culture; conditions: Klebsiella aerogenes
[6] = tested on: Enterobacter aerogenes (WT); assay: microbe, parasite or virus in culture; conditions: for MIC90: Klebsiella aerogenes
E. coli (WT) = assay: microbe, parasite or virus in culture; conditions: for MIC90: Escherichia coli
[7] = tested on: Enterobacter cloacae (WT); assay: microbe, parasite or virus in culture; conditions: 202 isolates, read-out: MIC90
E. coli (ESBL) = assay: microbe, parasite or virus in culture; conditions: Escherichia coli
Proteus vulgaris (WT) = assay: microbe, parasite or virus in culture
Klebsiella spp. (WT) = assay: microbe, parasite or virus in culture
Klebsiella spp. (KPC) = assay: microbe, parasite or virus in culture; conditions: Klebsiella
Enterobacteriaceae = assay: organism not typed
Klebsiella spp. (ESBL) = assay: microbe, parasite or virus in culture; conditions: Klebsiella
Proteus mirabilis (WT) = assay: microbe, parasite or virus in culture
[8] = tested on: Citrobacter freundii (AmpC); assay: microbe, parasite or virus in culture; conditions: Citrobacter freundii
S. marcescens (AmpC) = assay: microbe, parasite or virus in culture; conditions: Serratia marcescens
Providencia spp.(all) = assay: microbe, parasite or virus in culture
[9] = tested on: Morganella morganii (AmpC); assay: microbe, parasite or virus in culture; conditions: Morganella morganii
[10] = tested on: Enterobacter cloacae (AmpC); assay: microbe, parasite or virus in culture; conditions: Enterobacter cloacae
P. aeruginosa = assay: In vitro activity against P. aeruginosa clinical isolates
Method: GSK2251052 was tested for activity against P. aeruginosa, and its activity was compared to other antibiotics of known activity. The results are shown below in Tables 2a and 2b. Of 2,008 clinical isolates tested (from 2009-2010 subjects, of which 40% were from North America) greater than 90% were susceptible to GSK2251052 based on a potential susceptible breakpoint of ≦4 μg/mL.

E. coli ATCC 25922 = assay: Spontaneous frequency of resistance; conditions: 24 h
Method: as §1
(§4) Selection of resistance to GSK2251052 was attempted by spreading various amounts of bacteria onto MHBII noble agar plates containing 4×MIC (minimum inhibitory concentration) or 10×MIC of GSK2251052. Colonies were counted after 24 hours and 48 hours incubation at 37° C. The resistance of these colonies was confirmed by their ability to grow on plates containing GSK2251052 at either 4× or 10×MIC. Frequency of resistance was determined by dividing the number of resistant mutants by the total number of cells plated as determined by plating dilutions of the overnight culture on LB plates.

P. aeruginosa ATCC 27853 = assay: Spontaneous frequency of resistance; conditions: 24 h
Method: as §1, §4

K. pneumoniae ATCC 13883 = assay: Spontaneous frequency of resistance; conditions: 24 h
Method: as §1, §4

[11] = ATCC27853, P wt., read-out: MICs
[12] = ATCC27853, read-out: MICs, mutant P 101
[13] = ATCC27853, read-out: MICs, mutant P106
[14] = ATCC27853, read-out: MICs, mutant P108
[15] = ATCC25922, E wt, read-out: MICs
[16] = ATCC25922, read-out: MICs, mutant E 101
[17] = ATCC25922, read-out: MICs, mutant E 102
[18] = ATCC25922, read-out: MICs, mutant E 107
[19] = ATCC13883, K wt., read-out: MICs
[20] = ATCC13883, read-out: MICs, mutant K 104
[21] = ATCC13883, read-out: MICs, mutant K 105
[22] = ATCC13883, read-out: MICs, mutant K 107
[23] = ATCC13883, read-out: MICs, mutant K 108
[24] = ATCC13883, read-out: MICs, mutant K 110

`O=C(N[C@H](CO)[C@H](O)c1ccc([N+](=O)[O-])cc1)C(Cl)Cl` [Chloramphenicol] was tested, and the “cross-resistance of GSK2251052 resistant mutants” value [1] was “did not have any significant difference in MIC values than wild-type”, the MIC [2, 11] was over 64 µg/mL and the MIC [2, 12] was over 64 µg/mL. For the same compound, the MIC [2, 13] was over 64 µg/mL, the MIC [2, 14] was over 64 µg/mL and the MIC [3, 15] was 8 µg/mL (≈ 24.8 µM). For the same compound, the MIC [3, 16] was 8 µg/mL (≈ 24.8 µM), the MIC [3, 17] was 8 µg/mL (≈ 24.8 µM) and the MIC [3, 18] was 8 µg/mL (≈ 24.8 µM). The MIC [4, 19] was 4 µg/mL (≈ 12.4 µM), the MIC [4, 20] was 8 µg/mL (≈ 24.8 µM) and the MIC [4, 21] was 8 µg/mL (≈ 24.8 µM). It also gave an MIC [4, 22] of 8 µg/mL (≈ 24.8 µM), an MIC [4, 23] of 8 µg/mL (≈ 24.8 µM) and an MIC [4, 24] of 8 µg/mL (≈ 24.8 µM).
For `C[C@@H](O)[C@H]1C(=O)N2C(C(=O)O)=C(SCCN=CN)C[C@H]12` [Imipenem], the MIC90 [5] was 2 µg/mL (≈ 6.68 µM), the “susceptibility category of MIC90” value [6] was “**2” and the MIC90 [6] was 2 µg/mL (≈ 6.68 µM). The “susceptibility category of MIC90” value (E. coli (WT)) was “*0.25”, the MIC90 (E. coli (WT)) was 0.25 µg/mL (≈ 0.835 µM) and the MIC90 [7] was 1 µg/mL (≈ 3.34 µM). The MIC90 (E. coli (ESBL)) was 0.5 µg/mL (≈ 1.67 µM), the “susceptibility category of MIC90” value (Proteus vulgaris (WT)) was “***4” and the MIC90 (Proteus vulgaris (WT); Proteus vulgaris) was 4 µg/mL (≈ 13.4 µM). For the same compound, the “susceptibility category of MIC90” value (Klebsiella spp. (WT)) was “*0.25”, the MIC90 (Klebsiella spp. (WT); Klebsiella) was 0.25 µg/mL (≈ 0.835 µM) and the MIC90 (Klebsiella spp. (KPC)) was 64 µg/mL (≈ 214 µM). The MIC90 (Enterobacteriaceae) was 2 µg/mL (≈ 6.68 µM), the “susceptibility category of MIC90” value (Enterobacteriaceae) was “**2” and the MIC90 (Klebsiella spp. (ESBL)) was 0.5 µg/mL (≈ 1.67 µM). For the same compound, the “susceptibility category of MIC90” value (Proteus mirabilis (WT)) was “***4”, the MIC90 (Proteus mirabilis (WT); Proteus mirabilis) was 4 µg/mL (≈ 13.4 µM) and the MIC90 [8] was 1 µg/mL (≈ 3.34 µM). The MIC90 (S. marcescens (AmpC)) was 2 µg/mL (≈ 6.68 µM), the “susceptibility category of MIC90” value (Providencia spp.(all)) was “**2” and the MIC90 (Providencia spp.(all); Providencia) was 2 µg/mL (≈ 6.68 µM). The MIC90 [9] was 4 µg/mL (≈ 13.4 µM), the MIC90 [10] was 1 µg/mL (≈ 3.34 µM) and the “% susceptible” value (P. aeruginosa) was 72.9%.
With `O=C(O)c1cn(C2CC2)c2cc(N3CCNCC3)c(F)cc2c1=O` [Ciprofloxacin] the “Frequency of Resistance” value (E. coli ATCC 25922; 4 X MIC) was 2 × 10^−8, the “Frequency of Resistance” value (E. coli ATCC 25922; 10 X MIC) was <4 × 10^−9 and the “Frequency of Resistance” value (P. aeruginosa ATCC 27853; 4 X MIC) was 1 × 10^−8. The “Frequency of Resistance” value (P. aeruginosa ATCC 27853; 10 X MIC) was <1 × 10^−9, the “Frequency of Resistance” value (K. pneumoniae ATCC 13883; 4 X MIC) was 5 × 10^−7 and the “Frequency of Resistance” value (K. pneumoniae ATCC 13883; 10 X MIC) was <5 × 10^−9. For the same compound, the “cross-resistance of GSK2251052 resistant mutants” value [1] was “did not have any significant difference in MIC values than wild-type”, the MIC [2, 11] was 0.5 µg/mL (≈ 1.51 µM) and the MIC [2, 12] was 1 µg/mL (≈ 3.02 µM). The MIC [2, 13] was 1 µg/mL (≈ 3.02 µM), the MIC [2, 14] was 0.5 µg/mL (≈ 1.51 µM) and the MIC [3, 15] was 0.008 µg/mL (≈ 0.0241 µM). It also gave an MIC [3, 16] of 0.008 µg/mL (≈ 0.0241 µM), an MIC [3, 17] of 0.008 µg/mL (≈ 0.0241 µM) and an MIC [3, 18] of 0.015 µg/mL (≈ 0.0453 µM). For the same compound, the MIC [4, 19] was 0.125 µg/mL (≈ 0.377 µM), the MIC [4, 20] was 0.03 µg/mL (≈ 0.0905 µM) and the MIC [4, 21] was 0.06 µg/mL (≈ 0.181 µM). The MIC [4, 22] was 0.06 µg/mL (≈ 0.181 µM), the MIC [4, 23] was 0.03 µg/mL (≈ 0.0905 µM) and the MIC [4, 24] was 0.03 µg/mL (≈ 0.0905 µM).
With `C[C@H]1COc2c(N3CCN(C)CC3)c(F)cc3c(=O)c(C(=O)O)cn1c23` [Levofloxacin] the MIC90 [5] was 16 µg/mL (≈ 44.3 µM), the MIC90 ([6]; Enterobacter aerogenes (WT), 199 isolates, read-out: MIC90) was at most 0.5 µg/mL and the MIC90 (E. coli (WT); E. coli (WT), 214 isolates, read-out: MIC90) was 16 µg/mL (≈ 44.3 µM). For the same compound, the MIC90 [7] was at most 0.5 µg/mL, the MIC90 (E. coli (ESBL)) was over 16 µg/mL and the MIC90 (Proteus vulgaris (WT); Proteus vulgaris (WT), 41 isolates, read-out: MIC90) was at most 5 µg/mL. The MIC90 (Klebsiella spp. (WT); Klebsiella spp. (WT), 159 isolates, read-out: MIC90) was 4 µg/mL (≈ 11.1 µM), the MIC90 (Klebsiella spp. (KPC)) was over 16 µg/mL and the MIC90 (Enterobacteriaceae; Enterobacteriaceae, 2029 isolates, read-out: MIC90) was 16 µg/mL (≈ 44.3 µM). For the same compound, the MIC90 (Klebsiella spp. (ESBL)) was over 16 µg/mL, the MIC90 (Proteus mirabilis (WT); Proteus mirabilis (WT), 235 isolates, read-out: MIC90) was 8 µg/mL (≈ 22.1 µM) and the MIC90 [8] was 8 µg/mL (≈ 22.1 µM). The MIC90 (S. marcescens (AmpC)) was 4 µg/mL (≈ 11.1 µM), the “Frequency of Resistance” value (E. coli ATCC 25922; 4 X MIC) was 2 × 10^−8 and the “Frequency of Resistance” value (E. coli ATCC 25922; 10 X MIC) was <5 × 10^−9. The “Frequency of Resistance” value (P. aeruginosa ATCC 27853; 4 X MIC) was 1 × 10^−7, the “Frequency of Resistance” value (P. aeruginosa ATCC 27853; 10 X MIC) was <1 × 10^−9 and the “Frequency of Resistance” value (K. pneumoniae ATCC 13883; 4 X MIC) was 2 × 10^−7. For the same compound, the “Frequency of Resistance” value (K. pneumoniae ATCC 13883; 10 X MIC) was <3 × 10^−9, the MIC90 (Providencia spp.(all); Providencia spp.(all), 68 isolates, read-out: MIC90) was over 16 µg/mL and the MIC90 [9] was over 16 µg/mL. The MIC90 [10] was 16 µg/mL (≈ 44.3 µM) and the “% susceptible” value (P. aeruginosa; P. aeruginosa, 2,008 clinical isolates, GSK2251052 based on potential susceptible breakpoint of ≦4 μg/mL) was 63.7%.
